Test results published in US20250163002A1, “FUSED QUINONOXIME IMIDAZOLE, ONIUM DERIVATIVES THEREOF, PREPARATION AND USE THEREOF” (SHANGHAI JIAO TONG UNIVERSITY, priority 2022, published 2025).

How the values were obtained:
[1] = test system: prostate cancer cell PC-3; test: In vitro proliferation inhibition, PC-3; format: cell-based; conditions: unit inferred
Experimental: (§1) Test method: pancreatic cancer cells CFPAC-1 were cultured in a Dalbeco-improved Eagle medium with the addition of 10% FBS and 5% double-antibody. CFPAC-1 cancer cells were inoculated into a 96-well plate for incubation for 24 h; in the following day, test compounds having various concentrations of (100, 20, 10, 1, 0.1, 0.01, and 0.001 μM) and positive control agents were added per well; corresponding volume of fresh medium was added to blank control. After addition for 24 h or 48 h, cell proliferation was evaluated by chromogenic reaction of MTT formazan.
(§2) In addition, compounds (I), (II), (III), and (IV) of the present invention have good inhibition activity against the proliferation of other cancer cells, including non-small cell lung cancer cell (H460, H1299), liver tumor cell (HepG2), rectal cancer cell (HT29), leukemia cell (CCRF-CEM), prostate cancer cell (PC-3), ovarian carcinoma cell (SKOV-3), melanoma cell (A375), myeloma cell (RPMI-8226), esophageal carcinoma cell (TE-1), pancreatic cancer cell (CFPAC-1, PANC-1, SW1990, ASPC-1, and BXPC-3), bladder cancer cell (5637), and gastric cancer cell (KATO-III).

[2] = test system: non-small cell lung cancer cell H1299; test: In vitro proliferation inhibition, H1299; format: cell-based; conditions: unit inferred
Experimental: as §1, §2

HeLa = test: In vitro inhibition test for cancer cell proliferation (MTT), HeLa; format: cell-based; conditions: 24 h or 48 h after addition, unit inferred
myeloma cell RPMI-8226 = test: In vitro proliferation inhibition, RPMI-8226; format: cell-based; conditions: unit inferred
Experimental: as §1, §2

[3] = test system: esophageal carcinoma cell TE-1; test: In vitro proliferation inhibition, TE-1; format: cell-based; conditions: unit inferred
Experimental: as §1, §2

MCF-7 = test: In vitro inhibition test for cancer cell proliferation (MTT), MCF-7; format: cell-based; conditions: 24 h or 48 h after addition, unit inferred
[4] = test system: pancreatic cancer cell ASPC-1; test: In vitro proliferation inhibition, ASPC-1; format: cell-based; conditions: unit inferred
Experimental: as §1, §2

[5] = test system: CFPAC-1 pancreatic cancer cells; test: In vivo inhibition test of cancer cell proliferation, CFPAC-1 transplant; parameters: species or system Balb/c naked mouse; conditions: 7 mg/kg, once every other three days, 7 times; gross tumor volume
Experimental: Test method: 3×10^7 CFPAC-1 pancreatic cancer cells were transplanted to subcutaneous tissues of armpit of a Balb/c naked mouse; administration was conducted when the tumor grew to 50-100 mm^3, 100-200 mm^3, and greater than 200 mm^3; the mouse was administered once every other three days, 7 times in total, and 7 mg/kg each time. Normal saline was injected in the control group. Tumor length and diameter were measured by calipers and weight of the moue was weighed until the next day of the final administration. Gross tumor volume was calculated by the following equation:
gross tumor volume (mm^3)=½×[short diameter (mm)]^2×long diameter (mm)

liver tumor cell HepG2 = test: In vitro proliferation inhibition, HepG2; format: cell-based; conditions: unit inferred
Experimental: as §1, §2

[6] = test system: pancreatic cancer cell PANC-1; test: In vitro proliferation inhibition, PANC-1; format: cell-based; conditions: unit inferred
Experimental: as §1, §2

L929 = test: In vitro cell proliferation inhibition test (MTT), L929; format: cell-based; conditions: 24 h or 48 h after addition, unit inferred
[7] = test system: ovarian carcinoma cell SKOV-3; test: In vitro proliferation inhibition, SKOV-3; format: cell-based; conditions: unit inferred
Experimental: as §1, §2

Adenovirus = test: Antiviral activity, plaque test in 293A cells; format: cell-based; conditions: adenovirus in 293A cells
Experimental: Experimental method: 4.59 mg of the compound 125 were weighed and put to a 15 mL centrifugal tube with the addition of 10 mL of sterile water, and dissolved via vortex oscillation until there was no obvious yellow particle, then subpackaged and stored at −20° C., 200 μL/piece (concentration: 1 mM); 2.79 mg Cidofovir (molecular weight: 279) were weighed and added to the 15 mL centrifugal tube, dissolved with the addition of 10 mL sterile water, then subpackaged and stored at −20° C., 200 μL/piece (concentration: 1 mM).
Plaque test: • 1. 293A cells were paved into a 24-well plate with 150,000 cells per well, and cultured at 37° C. for 12-24 h, then used for test after growing to 90%. • 2. 2% low-melting point agarose gel was melted and put to a 56° C. water bath kettle for further use. • 3. Adenovirus having a titer of 10^9 TCID^50/mL was diluted by 10^5 folds; medium in the 24-well plate was removed, and 200 μL of adenoviral diluent was added per well and incubated in a 37° C. 5% CO2 incubator, shaken once every 30 min, and incubated for 1 h in total. • 4. The drug compound 125 to be tested and Cidofovir were double diluted with 2×MEM (16 μL compound 125 was added to 8 mL of 2×MEM, oscillated and mixed well, then 4 mL mixed solution was taken and added to fresh 4 mL of 2×MEM and mixed well, and 5 dilutions were conducted, being 2 μM, 1 μM, 500 nM, 250 nM, and 125 nM, respectively; the maximum concentration of the compound 125 was 1 μM. Similarly, 400 μL Cidofovir was added to 7.6 mL of 2×MEM, oscillated and mixed well, then 4 mL mixed solution was taken and added to fresh 4 mL of 2×MEM and mixed well, and 5 dilutions were conducted, being 50 μM, 25 μM, 12.5 μM, 6.25 μM, and 3.125 μM, respectively); the diluted solution was put at 37° C. for further use. • 4. The viral solution was discarded, and agarose gel preheated at 56° C. was added to 2×MEM by the same volume and mixed well, and then 2 mL of mixed solution was added per well, and incubated at room temperature for 30 min (gel). • 5. […]

[8] = test system: non-small cell lung cancer cell H460; test: In vitro proliferation inhibition, H460; format: cell-based; conditions: unit inferred
Experimental: as §1, §2

melanoma cell A375 = test: In vitro proliferation inhibition, A375; format: cell-based; conditions: unit inferred
Experimental: as §1, §2

bladder cancer cell 5637 = test: In vitro proliferation inhibition, 5637; format: cell-based; conditions: unit inferred
Experimental: as §1, §2

[9] = test system: pancreatic cancer cells CFPAC-1; test: In vitro proliferation inhibition, CFPAC-1; format: cell-based; conditions: unit inferred
Experimental: as §1, §2

A549 = test: In vitro inhibition test for cancer cell proliferation (MTT), A549; format: cell-based; conditions: 24 h or 48 h after addition, unit inferred
[10] = test system: pancreatic cancer cell SW1990; test: In vitro proliferation inhibition, SW1990; format: cell-based; conditions: unit inferred
Experimental: as §1, §2

[11] = test system: pancreatic cancer cell BXPC-3; test: In vitro proliferation inhibition, BXPC-3; format: cell-based; conditions: unit inferred
Experimental: as §1, §2

leukemia cell CCRF-CEM = test: In vitro proliferation inhibition, CCRF-CEM; format: cell-based; conditions: unit inferred
Experimental: as §1, §2

[12] = test system: gastric cancer cell KATO-III; test: In vitro proliferation inhibition, KATO-III; format: cell-based; conditions: unit inferred
Experimental: as §1, §2

rectal cancer cell HT29 = test: In vitro proliferation inhibition, HT29; format: cell-based; conditions: unit inferred
Experimental: as §1, §2

[13] = Compound toxicity test, body weight changes; format: in vivo, balb/c mice; conditions: tail intravenous injection, 5 mg/kg every day for 7 consecutive days
Experimental: Test method: the compounds 121, 123, 124, 125, 128, 132, 137, 138, 139, 140, 143, 144, 145, 146, and 147 in the examples of the present invention were administered every day via tail intravenous injection at a dose of 5 mg/kg for 7 consecutive days, and then body weight changes of the balb/c mice were monitored.

Cn1c[n+](C)c2c1C(=O)c1ccccc1C2=NOCc1ccccc1.[I-] [Compound 125, (E) and (Z)-4-((benzyloxy)imino)-1,3-dimethyl-9-oxo-4,9-dihydro-1H-naphthol[2,3-d]imidazole-3-iodide] gave an IC50 [1] of 26500 nM, an IC50 [2] of 260 nM and an IC50 (HeLa) of 5300 nM. For the same compound, the IC50 (myeloma cell RPMI-8226) was 89000 nM, the IC50 [3] was 60 nM and the IC50 (MCF-7) was 4500 nM. The IC50 [4] was 5 nM, the “proliferation inhibition activity / inhibition ratio” value [5] was 100% and the IC50 (liver tumor cell HepG2) was 9 nM. The IC50 [6] was 970 nM, the IC50 (L929) was 45300 nM and the IC50 [7] was 90 nM. The “effect on viral replication” value (Adenovirus) was “inhibiting effect on viral replication”, the IC50 [8] was 160 nM and the IC50 (melanoma cell A375) was 2210 nM. The IC50 (bladder cancer cell 5637) was 40 nM, the IC50 [9] was 6 nM and the IC50 (A549) was 5 nM. It also gave an IC50 [10] of 9 nM, an IC50 [11] of 3 nM and an IC50 (leukemia cell CCRF-CEM) of 90 nM. It also gave an IC50 [12] of 9 nM and an IC50 (rectal cancer cell HT29) of 5400 nM.
For Nc1ccn([C@@H]2O[C@H](CO)[C@@H](O)C2(F)F)c(=O)n1 [gemcitabine], the “condition and body weight changes of the mice” value [13] was “obviously reduced weight and are dispirited”.
